According to patent US7910609B2, “Inhibitors of integrin alpha2beta1 with modified urea moiety” (The Trustees Of The University Of Pennsylvania, priority 2005, dated 2011):

What was measured:
[1] = biological target: T1, integrin α2β1 (Homo sapiens, UniProt P05556+P17301); assay: Platelet adhesion assay: washed human platelet binding to soluble type I collagen; type: cell-based
T1 construct: Human blood was obtained by venipuncture from healthy volunteers; endogenous in cells; host or cells: washed human platelets from blood of healthy volunteers
Description: The series of compounds was tested for the ability to block washed human platelet binding to soluble type I collagen. […] Further understanding was sought with respect to the SAR of the urea functionality and its spatial positioning.
(§1) Preparation of Washed Platelets. All Studies were Conducted Following IRB-approved protocols at the University of Pennsylvania. Human blood was obtained by venipuncture from healthy volunteers using 0.3% sodium citrate as anticoagulant, then acid-citrate-dextrose was added (1 mL per 10 mL blood). Platelet-rich plasma (PRP) was then prepared by centrifugation at 200 g for 20 min. Platelets were obtained from the PRP by addition of prostacyclin (PG I2: 0.1 μg/ml) followed by centrifugation at 1000 g for 10 min. The pelleted platelets were resuspended in HEPES/Tyrode's buffer (20 mM HEPES, 129 mM NaCl, 0.34 mM Na2HPO4, 2.9 mM KCl, 12 mM NaHCO3, 5 mM glucose, 1 mm MgCl2, pH 7.3) and repelleted by repeated PG I2 addition and centrifugation.
(§2) Platelet Adhesion Assays. Immulon 2 flat bottom 96-well Plates (Dynatech Labs, Burlington, Mass.) were coated with soluble type I collagen, fibronectin (FN) or osteopontin (OPN) (5 μg/ml) in PBS for 48 hrs at 4° C. The plates were then washed and blocked with BSA (5 mg/ml in PBS) for at least 24 hr. Adhesion assays using type I collagen contained test compound and 1.6×10^7 Platelets in GFP buffer in a final volume of 100 μl. The plates were then incubated for 30 min at 37° C. and washed with TBS (10 mM Tris, 150 mM NaCl, pH 7.4). Quantification of adherent platelets was performed as previously described.^[27] Briefly, the platelets were stained for acid phosphatase by adding 0.1 M sodium citrate (pH 5.4) with 0.1% Triton X-100 containing 5 mM p-nitrophenyl phosphate substrate (100 μl/well) and incubated for 40 min at 37° C. Color was then developed by the addition of 50 μl 2.0 M NaOH per well and the plates were read at 405 nm in a Molecular Devices Spectra Max M5 microplate reader. Adhesion to FN- and OPN-coated plates were performed similarly using a modified GFP buffer for resuspension (4 mM HEPES, 147 mM NaCl, 2.7 mM KCl, 0.35% BSA, 0.1% glucose, 1 mM MgCl2, 1 mM MnCl2, pH 7.4). Platelets were stimulated in OPN binding by addition of 20 μM ADP during incubation.^[28] The platelets in αvβ3-mediated binding to FN were pre-treated with 2 μg per mL ReoPro (abciximab, chimeric 7E3 Fab; Centocor, Malvern Pa.) for 20 minutes at RT.

[2] = biological target: T2, integrin α5β1 (Homo sapiens, UniProt P05556+P08648); assay: Platelet adhesion to fibronectin (in the presence of abciximab); type: cell-based; settings: Table 2 selectivity, ligand Fibronectin
T2 construct: Platelets express several integrins, including αIIbβ3, αvβ3, α2β1, α5β1, and α6β1; endogenous in cells; host or cells: washed human platelets from blood of healthy volunteers
Description: as §1
as §2, with “The platelets in αvβ3-mediated binding to FN were pre-treated with 2 μg per mL ReoPro (abciximab, chimeric 7E3 Fab; Centocor, Malvern Pa.) for 20 minutes at RT.” left out

[3] = Table 1, washed human platelets, soluble type I collagen, 30 min at 37° C.
[4] = Compounds Produced in Accordance with Scheme 2

T2 sequence (P08648 42-894 limits assumed): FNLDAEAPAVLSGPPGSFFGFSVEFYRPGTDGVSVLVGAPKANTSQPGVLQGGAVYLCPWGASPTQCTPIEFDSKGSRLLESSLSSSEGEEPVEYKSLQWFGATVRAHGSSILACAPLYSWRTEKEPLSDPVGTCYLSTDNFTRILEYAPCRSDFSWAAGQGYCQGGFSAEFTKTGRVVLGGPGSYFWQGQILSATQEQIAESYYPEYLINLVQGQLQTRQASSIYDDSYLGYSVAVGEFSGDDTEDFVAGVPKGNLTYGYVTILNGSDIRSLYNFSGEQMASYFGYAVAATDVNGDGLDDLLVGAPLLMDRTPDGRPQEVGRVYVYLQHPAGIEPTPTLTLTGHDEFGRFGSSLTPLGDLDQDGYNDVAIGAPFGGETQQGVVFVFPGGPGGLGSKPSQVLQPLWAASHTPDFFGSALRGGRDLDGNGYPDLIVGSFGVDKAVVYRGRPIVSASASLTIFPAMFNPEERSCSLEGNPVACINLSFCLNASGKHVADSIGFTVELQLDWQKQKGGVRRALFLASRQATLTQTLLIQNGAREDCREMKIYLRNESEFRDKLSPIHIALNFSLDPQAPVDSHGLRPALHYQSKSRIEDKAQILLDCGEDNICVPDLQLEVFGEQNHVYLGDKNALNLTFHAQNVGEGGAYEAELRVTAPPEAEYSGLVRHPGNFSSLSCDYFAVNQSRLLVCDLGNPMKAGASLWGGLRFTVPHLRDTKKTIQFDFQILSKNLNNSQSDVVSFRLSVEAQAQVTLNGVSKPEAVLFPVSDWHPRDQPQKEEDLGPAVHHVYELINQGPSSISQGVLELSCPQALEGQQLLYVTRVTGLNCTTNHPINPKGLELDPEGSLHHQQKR
T2 sequence (P08648 895-1049 limits assumed): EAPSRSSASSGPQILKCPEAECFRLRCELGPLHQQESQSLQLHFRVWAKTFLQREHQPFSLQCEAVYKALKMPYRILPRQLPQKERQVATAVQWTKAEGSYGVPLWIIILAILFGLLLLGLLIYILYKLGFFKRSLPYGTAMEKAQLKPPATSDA
T2 sequence (P05556 21-798): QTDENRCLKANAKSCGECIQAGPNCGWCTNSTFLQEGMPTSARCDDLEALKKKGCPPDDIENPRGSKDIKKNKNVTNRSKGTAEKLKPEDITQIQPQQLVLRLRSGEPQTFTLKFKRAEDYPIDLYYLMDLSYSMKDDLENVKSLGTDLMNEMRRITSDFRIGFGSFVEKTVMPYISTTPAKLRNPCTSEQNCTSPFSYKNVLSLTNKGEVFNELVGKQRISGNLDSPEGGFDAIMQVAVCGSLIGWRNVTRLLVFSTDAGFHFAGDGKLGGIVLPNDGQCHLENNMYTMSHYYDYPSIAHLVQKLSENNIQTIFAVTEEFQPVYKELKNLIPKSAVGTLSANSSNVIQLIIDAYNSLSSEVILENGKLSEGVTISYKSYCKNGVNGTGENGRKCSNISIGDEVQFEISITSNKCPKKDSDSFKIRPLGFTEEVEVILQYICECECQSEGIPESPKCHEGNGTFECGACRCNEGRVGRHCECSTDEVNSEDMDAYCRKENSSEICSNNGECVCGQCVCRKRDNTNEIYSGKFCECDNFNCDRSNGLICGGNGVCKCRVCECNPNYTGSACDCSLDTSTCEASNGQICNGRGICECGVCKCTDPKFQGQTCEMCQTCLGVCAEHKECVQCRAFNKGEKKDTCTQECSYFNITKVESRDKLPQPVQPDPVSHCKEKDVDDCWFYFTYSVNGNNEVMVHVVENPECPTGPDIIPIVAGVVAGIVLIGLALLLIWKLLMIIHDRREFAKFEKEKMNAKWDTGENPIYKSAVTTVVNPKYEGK
T1 sequence (P17301 30-1181): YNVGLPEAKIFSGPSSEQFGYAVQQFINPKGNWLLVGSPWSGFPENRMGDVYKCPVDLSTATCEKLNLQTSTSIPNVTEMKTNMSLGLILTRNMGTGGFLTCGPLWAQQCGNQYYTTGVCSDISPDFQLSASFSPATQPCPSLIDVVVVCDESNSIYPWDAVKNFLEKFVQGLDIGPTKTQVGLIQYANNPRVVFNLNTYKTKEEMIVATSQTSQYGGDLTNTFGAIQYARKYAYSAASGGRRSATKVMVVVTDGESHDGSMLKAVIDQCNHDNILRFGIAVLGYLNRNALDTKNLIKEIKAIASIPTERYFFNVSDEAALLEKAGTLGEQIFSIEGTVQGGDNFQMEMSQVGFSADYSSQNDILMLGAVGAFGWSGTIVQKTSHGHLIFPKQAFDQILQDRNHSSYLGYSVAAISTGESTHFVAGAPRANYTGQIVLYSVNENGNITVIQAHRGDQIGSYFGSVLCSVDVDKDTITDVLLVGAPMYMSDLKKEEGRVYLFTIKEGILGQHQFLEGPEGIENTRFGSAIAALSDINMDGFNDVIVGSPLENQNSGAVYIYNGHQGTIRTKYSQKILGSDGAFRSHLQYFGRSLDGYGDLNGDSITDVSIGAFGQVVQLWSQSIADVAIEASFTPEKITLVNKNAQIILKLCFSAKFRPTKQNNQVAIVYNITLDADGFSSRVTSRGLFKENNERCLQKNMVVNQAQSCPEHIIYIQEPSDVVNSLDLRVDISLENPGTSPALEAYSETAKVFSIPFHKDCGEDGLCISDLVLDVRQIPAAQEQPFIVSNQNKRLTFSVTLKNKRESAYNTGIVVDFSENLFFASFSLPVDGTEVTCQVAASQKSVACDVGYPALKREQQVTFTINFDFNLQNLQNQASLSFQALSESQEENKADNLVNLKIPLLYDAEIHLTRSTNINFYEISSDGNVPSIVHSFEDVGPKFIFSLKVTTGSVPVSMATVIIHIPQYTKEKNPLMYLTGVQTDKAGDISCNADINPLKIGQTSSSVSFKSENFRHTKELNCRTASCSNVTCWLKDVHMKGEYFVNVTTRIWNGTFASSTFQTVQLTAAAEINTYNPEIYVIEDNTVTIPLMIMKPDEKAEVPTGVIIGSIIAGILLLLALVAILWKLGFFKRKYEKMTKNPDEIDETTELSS
T1 sequence (P05556 21-798): as the sequence (P05556 21-798) above

Work on `CC1(C)SCN(S(=O)(=O)c2ccccc2)C1C(=O)N[C@@H](CNC(=S)NCc1ccccc1)C(=O)O` (some centres unmarked) [Compound 6] yielded an IC50 [1, 3] of 0.007 µM.

In the case of `C[C@@H](NC(=O)NC[C@H](NC(=O)C1N(S(=O)(=O)c2ccccc2)CSC1(C)C)C(=O)O)c1ccccc1` (some centres unmarked) [Compound 7], the “greater potency of (R) conformation (7) than (S) conformation (8)” value ([1]; 7 versus 8, platelet adhesion to type I collagen) is reported as greater than 25 fold and the IC50 [1, 3] is reported as 0.022 µM.

`C[C@H](NC(=O)NC[C@H](NC(=O)C1N(S(=O)(=O)c2ccccc2)CSC1(C)C)C(=O)O)c1ccccc1` (some centres unmarked) [Compound 8] showed an IC50 [1, 3] greater than 0.5 µM.

For `Cc1ccccc1CNC(=O)NC[C@H](NC(=O)C1N(S(=O)(=O)c2ccccc2)CSC1(C)C)C(=O)O` (some centres unmarked) [Compound 9], the IC50 [1, 3] was 0.004 µM and the IC50 [2] was greater than 1 µM.

Work on `Cc1cccc(CNC(=O)NC[C@H](NC(=O)C2N(S(=O)(=O)c3ccccc3)CSC2(C)C)C(=O)O)c1` (some centres unmarked) [Compound 10] yielded an IC50 [1, 3] of 0.008 µM and an IC50 [2] greater than 1 µM.

Compound `Cc1ccc(CNC(=O)NC[C@H](NC(=O)C2N(S(=O)(=O)c3ccccc3)CSC2(C)C)C(=O)O)cc1` (some centres unmarked) [Compound 11] has an IC50 [1, 3] of 0.006 µM.

In the case of `CC1(C)SCN(S(=O)(=O)c2ccccc2)C1C(=O)N[C@@H](CNC(=O)NCc1ccc(Cl)cc1)C(=O)O` (some centres unmarked) [Compound 15], the IC50 [1, 3] is reported as 0.006 µM and the IC50 [2] is reported as greater than 1 µM.

`CC1(C)SCN(S(=O)(=O)c2ccccc2)C1C(=O)N[C@@H](CNC(=O)NCc1ccc(Br)cc1)C(=O)O` (some centres unmarked) [Compound 16] was tested, and the IC50 [1, 3] was 0.004 µM.

With `CC1(C)SCN(S(=O)(=O)c2ccccc2)C1C(=O)N[C@@H](CNC(=O)NCc1ccc(C(F)(F)F)cc1)C(=O)O` (some centres unmarked) [Compound 17] the IC50 [1, 3] was 0.041 µM.

`CC(C)(C)CNC(=O)NC[C@H](NC(=O)C1N(S(=O)(=O)c2ccccc2)CSC1(C)C)C(=O)O` (some centres unmarked) [Compound 19] showed an IC50 [1, 3] of 0.015 µM.

`CC1(C)SCN(S(=O)(=O)c2ccccc2)C1C(=O)N[C@@H](CNC(=O)NCC(c1ccccc1)c1ccccc1)C(=O)O` (some centres unmarked) [Compound 20] was tested, and the IC50 [1, 3] was greater than 2 µM.

With `CC1(C)SCN(S(=O)(=O)c2ccccc2)C1C(=O)N[C@@H](CNC(=O)NC(c1ccccc1)c1ccccc1)C(=O)O` (some centres unmarked) [Compound 21] the IC50 [1, 3] was 0.32 µM.

Work on `CC1(C)SCN(S(=O)(=O)c2ccccc2)C1C(=O)N[C@@H](CNC(=O)NCCc1ccccc1)C(=O)O` (some centres unmarked) [Compound 22] yielded an IC50 [1, 3] of 0.133 µM.

In the case of `CC1(C)SCN(S(=O)(=O)c2ccccc2)C1C(=O)N[C@@H](CNC(=O)NCC1CCCCC1)C(=O)O` (some centres unmarked) [Compound 23], the IC50 [1, 3] is reported as 0.028 µM.

`O=C(NCc1ccccc1)NCC(NC(=O)C1CCN1S(=O)(=O)c1ccccc1)C(=O)O` (centres unmarked) [Compound 24, 2-[(1-Benzenesulfonyl-azetidine-2-carbonyl)-amino]-3-(3-benzyl-ureido)-propionic acid] gave an IC50 [1, 4] of 0.215 µM.

Work on `CC1OCN(S(=O)(=O)c2ccccc2)C1C(=O)NC(CNC(=O)NCc1ccccc1)C(=O)O` (centres unmarked) [Compound 27, 2-[(3-Benzenesulfonyl-5-methyl-oxazolidine-4-carbonyl)-amino]-3-(3-benzyl-ureido)-propionic acid] yielded an IC50 [1, 4] of 0.012 µM.
